This test concerns L1210 leukemia ip in BDF1 mice, survival T/C. Briefly: NCI In Vivo Anticancer Drug Screen. Data for tumor model L1210 Leukemia (intraperitoneal) in B6D2F1 (BDF1) mice. The conditions noted are these: endpoint: mean survival time, higher = longer survival. A digest of the protocol: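 Tumor was transplanted into mice, which were then dosed with test compound or vehicle alone. Survival was recorded for each group, and the treated figure was expressed relative to the control figure.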

Setting [1] is: dose: 100.0 mg/kg/injection, schedule: Q04DX003 (ip), vehicle: saline with Tween-80.
Where [2] appears, read: dose: 200.0 mg/kg/injection, schedule: Q04DX003 (ip), vehicle: saline with Tween-80.
Setting [3] is: dose: 400.0 mg/kg/injection, schedule: Q04DX003 (ip), vehicle: saline with Tween-80.
The mark [4] stands for this setting: dose: 100.0 mg/kg/injection, schedule: Q01DX009 (ip), vehicle: saline with Tween-80.
[5] abbreviates: dose: 200.0 mg/kg/injection, schedule: Q01DX009 (ip), vehicle: saline with Tween-80.

Structures are written as SMILES. “And” between values parts separate entries of the source, which are not always exact repeats. Identical values can stand only once. Inconclusive results and toxic doses are left out.

From PubChem BioAssay AID248 (DTP/NCI, 2004) come the findings set out here.

Consider `OC/C(=C\c1ccccc1)c1ccccc1`, for which the T/C under setting [1] was 92 % of control, the T/C under setting [2] was 94 % of control and the T/C under setting [3] was 92 % of control.

Consider `S=C1NC2(CCCCC2)C2=C(CCCC2)S1`, for which the T/C was 100 % of control under setting [1], 88 % of control under setting [2] and 96 % of control under setting [3].

Regarding `O=C1OCCN1S(=O)(=O)c1ccc(Cl)cc1`, the T/C runs as follows: (dose: 100.0 mg/kg/injection, schedule: Q04DX003 (ip), vehicle: Klucel (hydroxypropylcellulose) (HPC)) 104 % of control; (dose: 200.0 mg/kg/injection, schedule: Q04DX003 (ip), vehicle: Klucel (hydroxypropylcellulose) (HPC)) 95 % of control; (dose: 400.0 mg/kg/injection, schedule: Q04DX003 (ip), vehicle: Klucel (hydroxypropylcellulose) (HPC)) 96 % of control.

As to `COc1cc(/C=N/NC(N)=S)cc(OC)c1OC`, the T/C runs as follows: under setting [4], 93 % of control; under setting [1], 108 % of control; under setting [5], 98 % of control; under setting [2], 110 % of control; (dose: 400.0 mg/kg/injection, schedule: Q01DX009 (ip), vehicle: saline with Tween-80) 104 % of control; under setting [3], 106 % of control.

Take `O=[N+]([O-])c1cc(Br)ccc1O`: the T/C is, setting by setting: (dose: 100.0 mg/kg/injection, schedule: Q04DX003 (ip), vehicle: saline) 100 % of control; (dose: 200.0 mg/kg/injection, schedule: Q04DX003 (ip), vehicle: saline) 89 % of control.

For `O=C1OC(c2cccc(Cl)c2)=N/C1=C\c1ccc(Cl)cc1`, the T/C is, setting by setting: (dose: 100.0 mg/kg/injection, schedule: Q04DX002 (ip), vehicle: Klucel (hydroxypropylcellulose) (HPC)) 100 % of control; (dose: 200.0 mg/kg/injection, schedule: Q04DX002 (ip), vehicle: Klucel (hydroxypropylcellulose) (HPC)) 92 % of control; (dose: 400.0 mg/kg/injection, schedule: Q04DX002 (ip), vehicle: Klucel (hydroxypropylcellulose) (HPC)) 92 % of control.

For the molecule `Cc1cc(NC(=O)c2ccccc2)c(Cl)cc1N`, the T/C is, setting by setting: (dose: 50.0 mg/kg/injection, schedule: Q01DX009 (ip), vehicle: saline with Tween-80) 105 % of control; (dose: 50.0 mg/kg/injection, schedule: Q04DX003 (ip), vehicle: saline with Tween-80) 94 % of control; under setting [4], 98 % of control; under setting [1], 98 % of control; under setting [5], 93 % of control; under setting [2], 93 % of control.

On to `Cc1ccc(NC(=O)N(CCCl)N=O)cc1C`, for which the T/C by setting is: (dose: 0.5 mg/kg/injection, schedule: Q01DX009 (ip), vehicle: carboxymethylcellulose (CMC)) 114 % of control; (dose: 1.0 mg/kg/injection, schedule: Q01DX009 (ip), vehicle: carboxymethylcellulose (CMC)) 119 % of control; (dose: 1.5 mg/kg/injection, schedule: Q01DX001 (ip), vehicle: carboxymethylcellulose (CMC)) 114 % of control; (dose: 2.0 mg/kg/injection, schedule: Q01DX009 (ip), vehicle: carboxymethylcellulose (CMC)) 103 % of control; (dose: 4.0 mg/kg/injection, schedule: Q01DX009 (ip), vehicle: carboxymethylcellulose (CMC)) 158 % of control; (dose: 6.0 mg/kg/injection, schedule: Q01DX001 (ip), vehicle: carboxymethylcellulose (CMC)) 119 % of control. Besides, the T/C (dose: 8.8 mg/kg/injection, schedule: Q01DX009 (ip), vehicle: carboxymethylcellulose (CMC)) is 249 % of control; the T/C (dose: 13.3 mg/kg/injection, schedule: Q01DX009 (ip), vehicle: carboxymethylcellulose (CMC)) was 159 % of control; the T/C (dose: 19.0 mg/kg/injection, schedule: Q01DX001 (ip), vehicle: carboxymethylcellulose (CMC)) is 173 % of control; the T/C (dose: 29.0 mg/kg/injection, schedule: Q01DX001 (ip), vehicle: carboxymethylcellulose (CMC)) is 214 % of control; the T/C (dose: 30.0 mg/kg/injection, schedule: Q01DX009 (ip), vehicle: carboxymethylcellulose (CMC)) was 103 % of control; the T/C (dose: 44.0 mg/kg/injection, schedule: Q01DX001 (ip), vehicle: carboxymethylcellulose (CMC)) is 210 % of control and 298 % of control. Moreover, the T/C was 257 % of control (dose: 66.0 mg/kg/injection, schedule: Q01DX001 (ip), vehicle: carboxymethylcellulose (CMC)); 218 % of control and 263 % of control (dose: 100.0 mg/kg/injection, schedule: Q01DX001 (ip), vehicle: carboxymethylcellulose (CMC)).

With `CN(C)c1ccc(/C=N/NC(=O)C2CCCO2)c(Cl)c1` (stereo not drawn), the T/C is 102 % of control (dose: 100.0 mg/kg/injection, schedule: Q01DX009 (ip), vehicle: Klucel (hydroxypropylcellulose) (HPC)) and 98 % of control (dose: 200.0 mg/kg/injection, schedule: Q01DX009 (ip), vehicle: Klucel (hydroxypropylcellulose) (HPC)).

Consider `CC(C)CCCC(C)C1CCC2C3CC=C4CC([S+](C)C)CCC4(C)C3CCC12C` (stereo not drawn), for which the T/C runs as follows: (dose: 25.0 mg/kg/injection, schedule: Q01DX009 (ip), vehicle: saline) 96 % of control; (dose: 50.0 mg/kg/injection, schedule: Q01DX009 (ip), vehicle: saline) 96 % of control; (dose: 100.0 mg/kg/injection, schedule: Q04DX003 (ip), vehicle: alcohol) 98 % of control.

Turning to `N#CCC(=O)N1Cc2cc3ccccc3nc2C1`, the T/C is 115 % of control (dose: 100.0 mg/kg/injection, schedule: Q04DX003 (ip), vehicle: saline sonified); 95 % of control (dose: 200.0 mg/kg/injection, schedule: Q04DX003 (ip), vehicle: saline sonified); 101 % of control (dose: 400.0 mg/kg/injection, schedule: Q04DX003 (ip), vehicle: saline sonified).
